Data set [1] deals with leak conductance of urea-treated SMVs. The data set can be described thus: Patch clamp recordings of urea-treated SMVs (F1 removed). The data set is classed as biochemical, rat. As for the experimental part:
F1 subunits were removed from SMVs by adapting previously-established methods. 60 mg SMV's/1 mL IB was treated with 1 mL of […] for 5 min. on ice, then centrifuged at 21000×g for 10 min. The pellet was washed 3× in IB (centrifugation at 21000×g for 10 min) and stored in IB.
Giga-ohm seals were formed on SMVs using pipettes and solutions as above. Peak membrane conductance was measured as described above.
Background: Patch clamp records ionic current or voltage across a cell membrane.

Data set [2] deals with complex V (F1FO ATPase) (Rattus norvegicus, UniProt P19511+Q06647). The data set can be described thus: ATP hydrolysis in SMVs, luciferin-luciferase assay. Format: biochemical. Set-up: from tissue; host or cells: rat brain mitochondria, lubrol-insoluble submitochondrial vesicles (SMVs). Particulars: in these assays (NADH and luciferase). An excerpt:
3 wells were used for each condition, repeated at least 3× on different SMV isolations.

Data set [3] relates to models of cell death and NDDs. Particulars: non-dopaminergic mechanism; cited from earlier work.
In data set [4] the test system is calcium (Ca2+)-induced membrane currents in rat liver mitoplasts. Particulars: cited from earlier work.
Data set [5] deals with T1, intermediate- and large-conductance channel activity of PSI-mitochondria (Rattus norvegicus, UniProt P19511+Q06647).
T1 sequence (P19511 43-256): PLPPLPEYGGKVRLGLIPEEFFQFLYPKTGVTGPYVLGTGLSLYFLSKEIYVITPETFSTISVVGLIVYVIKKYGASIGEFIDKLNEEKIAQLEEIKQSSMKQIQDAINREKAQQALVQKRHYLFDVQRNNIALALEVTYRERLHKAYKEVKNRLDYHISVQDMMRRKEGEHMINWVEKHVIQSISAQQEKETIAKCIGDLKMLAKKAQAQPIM
T1 sequence (Q06647 24-213): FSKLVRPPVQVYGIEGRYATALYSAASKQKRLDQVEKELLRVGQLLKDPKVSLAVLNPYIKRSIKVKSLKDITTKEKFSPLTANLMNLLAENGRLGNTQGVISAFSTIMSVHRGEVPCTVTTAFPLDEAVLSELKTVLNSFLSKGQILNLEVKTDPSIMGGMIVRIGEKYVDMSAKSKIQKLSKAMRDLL
The data set can be described thus: Patch clamp recording of brain-derived PSI-mitochondria. The data set is classed as biochemical. Particulars: subcortex mitochondria vs control animals. On the procedure: Isolation of Brain-derived Mitochondria. Standard techniques were adapted for isolating brain-derived mitochondria. Mitochondria were stored in isolation buffer (IB) at −80° C. For PSI-mitochondria, male Sprague-Dawley rats (6 wo, ˜200 gm, 3-6 rats/group/condition, at least 2 different preparations/experimental paradigm) were injected with the ubiquitin proteasome inhibitor Z-Ile-Glu(OtBu)-Ala-Leu-al (PSI; Peptides International Inc, Kentucky, USA; s.c. every other day for 1 or 2 weeks; 6.0 mg/kg PSI in DMSO, or with DMSO, 200 μL/rat), and mitochondria isolated and stored as above.
Reagents were rapidly perfused into the recording chamber.

The subject of data set [6] is C2C12 myoblasts. The data set can be described thus: OCR and ECAR in C2C12 myoblasts (Seahorse). The data set is classed as cell-based, mouse. Particulars: dexpramipexole 30 μM or PSI 30 nM alone, 18 hr. As for the experimental part:
(§1) The C2C12 mouse myoblast cell line (ATCC, Manasses, Va.) was cultured in Dulbecco's Modified Eagle Medium (DMEM; Gibco®; Carlsbad, Calif.) supplemented with 10% fetal bovine serum (FBS), 2 mM GlutaMax® and penicillin/streptomycin. Cells were maintained in 10% CO2 humidified at 37° C.
OCR and ECAR were measured with a Seahorse® XF24 Flux Analyzer (Seahorse Bioscience, Billerica, Mass.). For PSI experiments on C2C12 cells, basal values were assessed in non-buffered DMEM Assay Medium without glucose, glutamine or pyruvate, and supplemented with 25 mM glucose, 6 mM Glutamax®, and 1 mM sodium pyruvate. […] Succinate and ADP stocks were diluted to 10× concentrations in pre-warmed XF MAS buffer, pH 7.2. Using a Plate Prep Station (Seahorse Bioscience, Billerica, Mass.), cells were washed with 1 mL buffer and were brought to 607 μL with buffer. […] Raw basal OCR and ECAR values were normalized as a percent of the mean control value for each individual experiment. Normalized data from experiments were expressed as mean±SEM.

The test system of data set [7] is C2C12 cells. Format: cell-based, mouse. On the procedure: (§2) Data are presented as a percentage of the vehicle-treated control ±SEM (n=10 wells at each concentration). […] Experiments commenced 18 hr. after addition of drug. […] Data are presented as a percentage of the vehicle-treated control±SEM (n=14-17 wells for each group).
as §1
(§3) Cellular viability was measured using CellTiter-Blue® (Promega Corp., Madison, Wis.) in black-walled optical imaging multiwell plates, and cellular ATP was measured using the CellTiter-Glo® (Promega Corp., Madison, Wis.) luminescence assay in opaque-walled multiwell plates according to the manufacturer's protocol.

The test system of data set [8] is C2C12 cells. On the procedure:
as §2, §1, §3

The subject of data set [9] is SH-SY5Y neuroblastoma cells. The data set can be described thus: PSI-induced cell death in SH-SY5Y cells (CellTiter-Blue). Particulars: 24 hr exposure to PSI at 150 or 650 nM. As for the experimental part: Data shown represent mean±SEM. […] Bar graphs represent normalized mean±SEM. Cell viability was measured by CellTiter-Blue®; n=41-98 wells/condition.
Undifferentiated SH-SY5Y human neuroblastoma cells (ATCC, Manasses, Va.) were maintained in humidified 5% CO2 in 1:1 Ham's F12 nutrient mixture with Glutamax® and Minimal Essential Medium with L-glutamine (MEM-Alpha), 10% FBS, and 1% penicillin/streptomycin (Gibco® Invitrogen Corp., Carlsbad, Calif.).
as §3
(The colour change of resazurin is a common sign of viable cells or microbes.)

The subject of data set [10] is digitonin-treated cortical neurons. The data set can be described thus: ATP production following ADP pulse in digitonin-treated cortical neurons. Particulars: dexpramipexole 30 μM. Format: cell-based, rat.

For the compound `Nc1ncnc2c1ncn2[C@@H]1O[C@H](COP(=O)(O)OP(=O)(O)OP(=O)(O)O)[C@@H](O)[C@H]1O` [ATP, adenosine triphosphate, reference compound], the “leak conductance after removal of F1” value in [1] is listed as “still very effectively decreased the leak conductance”.

On to `CC[C@H]1/C=C/C=C/C[C@@H](C)[C@H](O)[C@@](C)(O)C(=O)[C@@H](C)[C@H](O)[C@@H](C)C(=O)[C@@H](C)[C@H](O)[C@@H](C)/C=C/C(=O)O[C@@H]2[C@H](C)[C@H](CC1)O[C@]1(CC[C@H](C)[C@H](C[C@@H](C)O)O1)[C@H]2C` [oligomycin, reference compound], for which, in data set [2], the ATP hydrolysis entry is “effectively inhibited ATP hydrolysis”.

On to `CCCN[C@H]1CCc2nc(N)sc2C1` [pramipexole, (6S)-4,5,6,7-tetrahydro-N6-propyl-2,6-benzothiazole-diamine, reference compound], for which the protective concentrations in data set [3] is ≥ 10 µM. Moreover, the “Ca2+-induced membrane currents” value in data set [4] was “inhibit”.

On to “Z-Ile-Glu(OtBu)-Ala-Leu-H [PSI, reference compound]”, for which the “intermediate- and large-conductance mitochondrial ion channel activity after repeated pre-treatment of rats” value in data set [5] is given as “significant increase”. Besides, the ECAR result in data set [6] was “very significant increase in ECAR”. Also, the OCR entry in [6] was “did not display a significant change in OCR”. Also, the ATP levels entry in [7] was “neither ATP levels nor cell viability (FIG. 5b) were significantly affected”. In data set [8] (18 hr exposure), the “concentrations reducing cellular viability” value is > 60 nM. The cell viability result is recorded as “neither ATP levels nor cell viability (FIG. 5b) were significantly affected” in data set [8] (dexpramipexole 30 μM or PSI 30 nM, 18 hr, relative to control) and “significant decreases in cell viability” in [9].

With antimycin A [reference compound], in data set [10], the “initial slope of ATP synthesis following an ADP pulse” value is listed as “significantly reduced” and the “maximal ATP levels” value was “significantly reduced”.

(Values after patent publication US20130273557A1 (priority 2010, published 2013).)
